From article PMC4774911, “Biochemical Screening of Five Protein Kinases from Plasmodium falciparum against 14,000 Cell-Active Compounds” (PLoS ONE, 2016)
Read-outs that look alike come from different tables or passages of the source.

Experiments:
[1] = biological target: T1, Plasmodium falciparum calcium-dependent protein kinase 1 (CDPK1) (Plasmodium falciparum, UniProt P62344); assay: CDPK1 Kinase-Glo ATP-consumption screen and dose-response; type: biochemical; conditions: hits below 1 uM; read-out: CDPK1 IC50
T1 construct: 6-Histidine (N); made in house
T1 sequence (P62344 whole entry): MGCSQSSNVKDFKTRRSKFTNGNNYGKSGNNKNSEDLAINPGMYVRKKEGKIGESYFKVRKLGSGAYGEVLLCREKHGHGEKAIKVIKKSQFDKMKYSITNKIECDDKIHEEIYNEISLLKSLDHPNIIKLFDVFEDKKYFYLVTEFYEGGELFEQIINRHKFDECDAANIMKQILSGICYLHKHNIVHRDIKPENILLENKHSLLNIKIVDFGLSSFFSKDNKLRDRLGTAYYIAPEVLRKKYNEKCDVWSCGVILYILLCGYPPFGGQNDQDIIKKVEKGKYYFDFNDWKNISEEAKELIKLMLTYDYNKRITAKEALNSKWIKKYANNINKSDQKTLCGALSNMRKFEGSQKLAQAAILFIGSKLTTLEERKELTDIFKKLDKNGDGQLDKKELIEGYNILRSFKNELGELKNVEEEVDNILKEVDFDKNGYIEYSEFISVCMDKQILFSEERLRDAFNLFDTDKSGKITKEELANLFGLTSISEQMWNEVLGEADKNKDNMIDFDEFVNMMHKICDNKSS
How it was run: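 ATP consumption by recombinant P. falciparum CDPK4 or CDPK1 measured as residual ATP by Kinase-Glo luminescence, with 40 μM Syntide-2 substrate and 90 min incubation stopped with 5 mM EGTA. Single-point screen at 1 μM final, followed by dose-response; no-substrate wells as negative control.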

[2] = biological target: T2, Plasmodium falciparum calcium-dependent protein kinase 4 (CDPK4) (Plasmodium falciparum, UniProt Q8IBS5); assay: CDPK4 Kinase-Glo ATP-consumption screen and dose-response; type: biochemical; conditions: hits below 1 uM
T2 construct: 6-Histidine (N); made in house
T2 sequence (Q8IBS5 1-528): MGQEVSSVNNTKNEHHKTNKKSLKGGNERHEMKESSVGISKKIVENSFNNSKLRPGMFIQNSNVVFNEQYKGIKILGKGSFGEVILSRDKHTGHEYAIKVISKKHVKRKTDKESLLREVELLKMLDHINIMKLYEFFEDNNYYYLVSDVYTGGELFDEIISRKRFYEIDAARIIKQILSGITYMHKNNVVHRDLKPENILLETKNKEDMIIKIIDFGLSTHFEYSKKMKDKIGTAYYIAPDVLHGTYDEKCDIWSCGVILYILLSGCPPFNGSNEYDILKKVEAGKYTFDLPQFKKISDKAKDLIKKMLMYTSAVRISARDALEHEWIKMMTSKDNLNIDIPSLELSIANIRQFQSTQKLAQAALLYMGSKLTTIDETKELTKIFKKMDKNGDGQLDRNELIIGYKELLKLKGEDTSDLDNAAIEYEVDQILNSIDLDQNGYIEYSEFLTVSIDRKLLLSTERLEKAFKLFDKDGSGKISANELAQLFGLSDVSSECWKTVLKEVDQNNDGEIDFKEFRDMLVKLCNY
Method: Biochemical assays were performed in white 384-well plates (Nunc). Liquid transfers were done manually with 8-channel pipets. Compounds were initially tested in a single-point screen (final concentration 1 μM). […] The catalytic activity of each kinase was considered proportional to ATP consumed, as determined from measurements of residual [ATP] with the luciferase-based reagent Kinase-Glo (Promega) following incubation. Luminescence (proportional to residual [ATP]) was measured on the plate readers FLx800 (BioTek Instruments, Winooski, VT, USA) and MicroBeta^2 (PerkinElmer, Waltham, MA, USA). Incubation times were chosen to ensure near-complete ATP depletion in the absence of inhibition, thus maximizing the difference in signal between inhibited and uninhibited wells.
40 μM Syntide-2 was used as a substrate; BKI-1 [14] was used as a control inhibitor, while reaction mixtures lacking Syntide-2 were included as an additional negative control. Incubation time was 90 minutes. Reactions were terminated by adding excess EGTA (5 mM), which sequesters Ca^2+ and halts calcium-dependent kinase activity.

PKG = PKG (Plasmodium falciparum, UniProt Q8I719); assay: PKG IC50 (supplementary data file); type: biochemical
Chain of PKG (Q8I719 whole entry): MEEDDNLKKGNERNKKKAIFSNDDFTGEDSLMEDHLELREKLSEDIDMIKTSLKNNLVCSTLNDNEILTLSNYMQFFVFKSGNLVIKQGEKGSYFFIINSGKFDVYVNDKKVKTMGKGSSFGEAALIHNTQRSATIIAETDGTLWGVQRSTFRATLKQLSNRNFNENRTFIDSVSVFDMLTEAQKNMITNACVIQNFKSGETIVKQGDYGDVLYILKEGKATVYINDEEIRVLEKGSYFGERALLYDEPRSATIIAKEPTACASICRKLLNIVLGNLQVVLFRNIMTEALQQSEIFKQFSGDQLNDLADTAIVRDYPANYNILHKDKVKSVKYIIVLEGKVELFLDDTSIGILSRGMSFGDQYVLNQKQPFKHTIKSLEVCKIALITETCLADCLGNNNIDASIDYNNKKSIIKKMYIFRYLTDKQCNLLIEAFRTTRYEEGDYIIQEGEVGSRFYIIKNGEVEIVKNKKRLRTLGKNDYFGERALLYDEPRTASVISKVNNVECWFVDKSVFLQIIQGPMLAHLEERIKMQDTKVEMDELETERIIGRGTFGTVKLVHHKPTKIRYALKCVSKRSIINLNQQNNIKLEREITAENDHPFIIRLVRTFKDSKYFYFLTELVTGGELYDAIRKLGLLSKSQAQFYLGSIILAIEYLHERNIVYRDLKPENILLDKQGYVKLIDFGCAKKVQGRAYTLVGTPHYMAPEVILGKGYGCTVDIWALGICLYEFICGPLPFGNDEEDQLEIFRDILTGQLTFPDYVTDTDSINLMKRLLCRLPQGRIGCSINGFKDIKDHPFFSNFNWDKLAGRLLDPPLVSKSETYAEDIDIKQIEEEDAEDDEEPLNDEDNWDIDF
Excerpt: Supplement pone.0149996.s003.xls, sheet "combined_1_sorted"

HepG2 cells = conditions: cited from earlier work
P. falciparum 3D7 cells = conditions: 3D7, cited from earlier work
DD2 [3] = test system: DD2; design: method as in F.J. Gamo et al., Nature 2010; conditions: downloaded from ChEMBL, ref F.J. Gamo et al., Nature 2010; cited from earlier work
3D7 PFLDH [4] = test system: 3D7 PFLDH; design: method as in F.J. Gamo et al., Nature 2010; concentration or dose not given beside the values; conditions: downloaded from ChEMBL, ref F.J. Gamo et al., Nature 2010; cited from earlier work
[5] = biological target: T3, Plasmodium falciparum protein kinase 6 (PK6) (Plasmodium falciparum, UniProt Q8IDW1); assay: biochemical; conditions: hits below 1 uM; read-out: PK6 IC50
T3 construct: 6-Histidine (N); made in house
T3 sequence (Q8IDW1 1-305): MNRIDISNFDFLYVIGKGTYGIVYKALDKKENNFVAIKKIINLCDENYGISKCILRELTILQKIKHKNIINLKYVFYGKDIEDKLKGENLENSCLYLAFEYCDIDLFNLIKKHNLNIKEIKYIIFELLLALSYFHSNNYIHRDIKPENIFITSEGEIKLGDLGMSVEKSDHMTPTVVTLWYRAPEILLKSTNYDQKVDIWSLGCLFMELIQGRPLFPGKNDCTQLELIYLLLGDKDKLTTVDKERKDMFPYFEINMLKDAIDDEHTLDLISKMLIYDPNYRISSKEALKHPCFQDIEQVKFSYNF

DD2 [6] = test system: DD2; design: method as in downloaded from ChEMBL; conditions: ref downloaded from ChEMBL; cited from earlier work
3D7 PFLDH [7] = test system: 3D7 PFLDH; design: method as in downloaded from ChEMBL; conditions: ref downloaded from ChEMBL; cited from earlier work
[8] = HepG2, downloaded from ChEMBL, ref F.J. Gamo et al., Nature 2010
[9] = downloaded from ChEMBL, ref F.J. Gamo et al., Nature 2010
[10] = HEPG2, ref downloaded from ChEMBL

Row | IC50 [5] [µM] | Compound | IC50 [1] [µM] | IC50 [2] [µM] | IC50 (PKG) [µM] | PCT_INHIB_HEPG2 (HepG2 cells; [8]) [%] | PCT_IHB_3D7 (P. falciparum 3D7 cells; [9]) [%] | pXC50_3D7 (P. falciparum 3D7 cells; [9]) | PCT_INHB_DD2 (DD2 [3]) [%] | PCT_INHIB_3D7_PFLDH (3D7 PFLDH [4]) [%] | PCT_INHIB_HEPG2 (HepG2 cells; [10]) | PCT_IHB_3D7 (P. falciparum 3D7 cells; ref downloaded from ChEMBL) | pXC50_3D7 (P. falciparum 3D7 cells; ref downloaded from ChEMBL) | PCT_INHB_DD2 (DD2 [6]) | PCT_INHIB_3D7_PFLDH (3D7 PFLDH [7])
1 | – | O=C(O)C(F)(F)F.O=c1[nH]ccc2nc(N[C@@H]3CCNC3)nc(Nc3cc(Cl)cc(Cl)c3)c12 [TCMDC-135052] | 0.033 | 0.446 | 0.486 | 99 | 100 | 6.132 | 99 | 0 | – | – | – | – | –
2 | – | CCn1c(-c2nonc2N)nc2c(-c3cccc(NC(=O)Nc4cccc(Cl)c4)c3)ncc(OCCCN)c21.O=C(O)C(F)(F)F [TCMDC-136193] | 0.379 | 0.081 | 0.926 | 9 | 91 | 6.027 | 78 | 0 | – | – | – | – | –
3 | – | CCn1c(-c2nonc2N)nc2c(-c3cccc(Cl)c3)ncc(OCCCNCc3cnc(C)nc3N)c21.O=C(O)C(F)(F)F [TCMDC-135956] | 0.271 | 0.145 | 9.21 | 21 | 93 | 5.996 | 48 | 3 | – | – | – | – | –
4 | – | CCn1c(-c2nonc2N)nc2c(-c3ccccc3)ncc(OCCCCNCCc3ncc[nH]3)c21.O=C(O)C(F)(F)F [TCMDC-136000] | 0.094 | 0.043 | 0.953 | 34 | 92 | 6.07 | 42 | 0 | – | – | – | – | –
5 | 0.07 | CNC(=O)c1ccccc1Nc1nc(Nc2ccc(CCN3CCN(C)CC3)cc2)ncc1Cl.Cl [TCMDC-133800] | 0.047 | 0.361 | 0.881 | 76 | 97 | 6.1864 | 98 | 5 | – | – | – | – | –
6 | – | CN1CCN(c2ccc(Nc3nccc(-c4c(-c5cccc(NC(=O)c6c(F)cccc6F)c5)nn5ccccc45)n3)cc2)CC1 [TCMDC-135818] | 0.035 | 0.075 | 0.115 | – | – | – | – | – | 86 | 98 | 6.95 | 98 | 0
7 | – | NS(=O)(=O)c1cccc(Nc2nccc(-c3c(-c4cccc(NC(=O)c5c(F)cccc5F)c4)nn4ccccc34)n2)c1 [TCMDC-135780] | 0.02 | 0.051 | > 10 | – | – | – | – | – | 81 | 98 | 7.1329 | 97 | 2
8 | – | CCn1c(-c2nonc2N)nc2c(-c3cccc(NC(=O)Nc4ccc(C(F)(F)F)cc4)c3)ncc(OCCCN)c21.O=C(O)C(F)(F)F [TCMDC-136179] | 0.959 | 0.03 | 0.264 | 36 | 94 | 5.981 | 63 | 6 | – | – | – | – | –
9 | – | CCn1c(-c2nonc2N)nc2c(-c3cccc(NC(=O)Nc4cccc(C#N)c4)c3)ncc(OCCCN)c21.O=C(O)C(F)(F)F [TCMDC-136195] | 0.182 | 0.17 | 0.158 | 37 | 92 | 6.1747 | 80 | 0 | – | – | – | – | –
10 | – | CCn1c(-c2nonc2N)nc2c(-c3cccc(NC(=O)Nc4ccc(C#N)cc4)c3)ncc(OCCCN)c21.O=C(O)C(F)(F)F [TCMDC-136194] | 0.235 | 0.084 | 0.595 | 1 | 85 | 5.821 | 80 | 0 | – | – | – | – | –
11 | – | CCn1c(-c2nonc2N)nc2c(-c3cccc(NC(=O)NC45CC6CC(CC(C6)C4)C5)c3)ncc(OCCCN)c21.O=C(O)C(F)(F)F [TCMDC-136246] | 0.084 | 0.158 | 0.089 | 100 | 94 | – | 63 | 0 | – | – | – | – | –
12 | – | CCn1c(-c2nonc2N)nc2c(-c3ccccc3)ncc(OCCCNCCCN3CCOCC3)c21.O=C(O)C(F)(F)F [TCMDC-135858] | 0.042 | 0.038 | 0.126 | 28 | 100 | 6.174 | 91 | 0 | – | – | – | – | –
13 | – | CCn1c(-c2nonc2N)nc2c(-c3cc4ccccc4s3)ncc(C(=O)N3CCC(N)C3)c21.O=C(O)C(F)(F)F (stereo not shown) [TCMDC-135281] | – | 0.089 | 6.94 | 99 | 98 | 6.06 | 66 | 5 | – | – | – | – | –
14 | – | NCCCNc1nc(Nc2cccc(C(N)=O)c2)c2c(=O)[nH]ccc2n1.O=C(O)C(F)(F)F [TCMDC-135053] | 0.75 | 0.967 | 7.33 | 9 | 99 | 6.226 | 49 | 0 | – | – | – | – | –
15 | – | CCn1c(-c2nonc2N)nc2c(-c3cccc(NC(=O)Nc4ccc5c(c4)CCC5)c3)ncc(OCCCN)c21.O=C(O)C(F)(F)F [TCMDC-136191] | 0.085 | 0.059 | 5.05 | 26 | 99 | 6.106 | 94 | 0 | – | – | – | – | –
16 | – | CCn1c(-c2nonc2N)nc2c(-c3cccc(Cl)c3)ncc(OCCCNCCc3c[nH]cn3)c21.O=C(O)C(F)(F)F [TCMDC-135919] | 0.138 | 0.046 | 2.21 | 16 | 100 | 6.007 | 98 | 0 | – | – | – | – | –
17 | – | Cc1cccc(Nc2nc(NCCCCN)nc3cc[nH]c(=O)c23)c1.O=C(O)C(F)(F)F [TCMDC-134946] | 0.566 | 0.166 | 1.58 | 34 | 98 | 6.135 | 97 | 0 | – | – | – | – | –
18 | – | Cc1cccc(Nc2nc(N[C@@H]3CCCNC3)nc3cc[nH]c(=O)c23)c1.O=C(O)C(F)(F)F [TCMDC-134835] | 0.023 | 0.076 | 0.422 | 55 | 99 | 6.166 | 98 | 1 | – | – | – | – | –
19 | – | NS(=O)(=O)c1cccc(Nc2nc(N[C@@H]3CCNC3)nc3cc[nH]c(=O)c23)c1.O=C(O)C(F)(F)F [TCMDC-135057] | 0.083 | 0.135 | 1.85 | 7 | 99 | 6.027 | 98 | 0 | – | – | – | – | –
